Test results published in patent US20090110739A1, “Targeted cancer chemotherapy using synthetic nanoparticles” (University of North Texas Health Science Center at Forth …, priority 2007, published 2009).

Columns and labels:
Assay type in all cases: cell-based
[1] = system: OVCAR 3; test: MTT cytotoxicity, OVCAR 3 cancer cell line; settings: Homo sapiens; OVCAR 3 cells
[2] = system: DU145; test: MTT cytotoxicity, DU145 cancer cell line; settings: Homo sapiens, DU-145; DU145 cells
[3] = system: cancer cells; test: Uptake of paclitaxel encapsulated in sHDL nanoparticles by cancer cells; settings: encapsulated in the delivery particles; HDL receptors; FIG. 7
[4] = system: OV1063; test: MTT cytotoxicity, OV1063 cancer cell line; settings: Homo sapiens, OV-1063; OV1063 cells

CC(=O)O[C@H]1C(=O)[C@@]2(C)[C@H]([C@H](OC(=O)c3ccccc3)[C@]3(O)C[C@H](OC(=O)[C@H](O)[C@@H](NC(=O)c4ccccc4)c4ccccc4)C(C)=C1C3(C)C)[C@]1(OC(C)=O)CO[C@@H]1C[C@@H]2O [Ptx, paclitaxel]
IC50 [1]: 70.3 µM
IC50 [2]: 14.2 µM
uptake by cancer cells [3]: taken up by cancer cells via this receptor mediated mechanism
IC50 [4]: 14.2 µM
